In paper PMC5040732, “Development of a Novel Quantitative Structure-Activity Relationship Model to Accurately Predict Pulmonary Absorption and Replace Routine Use of the Isolated Perfused Respiring Rat Lung Model” (Pharmaceutical Research, 2016):
Marks after values point to notes of the source that are not given here.

Legend:
[1] = % of dose in solution in the dose formulation (dose analysis pre- and post-centrifugation); format: physicochemical; conditions: aqueous dose formulation
Description: All compounds were formulated in an aqueous vehicle, the majority (79%) containing 0.2% Tween 80 in either water or saline. Due to the diverse nature of the molecules investigated, formulations were a mix of solutions and suspensions ranging from <1 to 100% compound in solution. Compound solubility effects were investigated using a tool compound available in three micronised salt forms with varying solubilities. The free base (FB), hydroxynapthoate (HNA) and hydrochloride (HCl) forms were each administered to the IPRLu model at a dose equivalent to 15 μg free base.
Data generated with the IPRLu model on 17 marketed drugs (14 out of 17 designed for inhaled delivery) are shown in Table I. All the compounds display a moderate to high extent of total dose in the perfusate at 20 minutes (10–100%), in keeping with the in-house observation that compounds displaying < <10% carry a high risk of accumulation in the lung upon repeat dosing, which can lead to developability issues and high attrition rates. The marketed compound set can be classified into two groups according to their solubility. The first group are reasonably soluble in the dose formulation (>80% of the parent compound in solution, determined by dose analysis pre- and post-centrifugation) and display similar values for %SDiP and %TDiP. The second group are only partially soluble in the dose formulation (<80% of the parent compound in solution) and therefore display greater values for %SDiP compared to %TDiP.

[2] = isolated perfused respiring rat lung (IPRLu) model, intratracheal instillation; conditions: for %SDiP: solubilised dose in perfusate at 20 mins; for %TDiP: total dose in perfusate at 20 mins; for recovery at 20 min / half-life: male, CD, rat, 100 μL, pH 7.4; for recovery at 20 min: isolated perfused respiring rat lung (IPRLu), lungs in situ
Experimental: The IPRLu model, including surgery, dosing and sample collection, was performed by the Laboratory Animal Sciences department at GSK. Methodology was based on that described by Tronde et al. (23;24) but with lungs remaining in situ and intratracheal instillation as the dosing technique. Prior to surgery male CD rats were anaesthetised with intraperitoneal ketamine and medetomidine (Dormitor^TM) at […] and 0.5 ml/kg respectively. In addition, 50U of heparin was administered intravenously via a tail vein. Following confirmation of anaesthesia, the front of the rib cage was removed to access heart and lungs, and the trachea cannulated and secured with a ligature. Respiration was transferred to a positive pressure small animal ventilator (Harvard Apparatus Ltd, Edenbridge, Kent, UK) and maintained at 40 breaths per minute with a tidal volume of 1.8 ml. Following exsanguination, the pulmonary artery and vein were cannulated through incisions in the right and left ventricles in order to isolate the blood pulmonary circulatory system. The rat was then raised and maintained at an angle of 45° using a custom made elevating chamber similar to that described by Brain et al. ([26]). […] After an initial first pass to flush blood from the lung vasculature, the perfusion buffer was then recirculated for approximately 10 minutes to equilibrate and attain the required flow rate. Lungs were visually inspected for leaks and signs of oedema ([27]). Compounds were administered either discretely or co-formulated (2–4 compounds) and experiments were carried out in duplicate. Doses (100 μL) were administered to the trachea slightly above the bifurcation point by introduction of a 50 mm needle Hamilton syringe into the tracheal cannula followed by 3 x 1 ml of air. The tracheal cannula was then reattached to the ventilator and total perfusate was collected over 1 min intervals for 20 mins. Perfusate aliquots (1 ml) were frozen (-20°C) along with terminal lung samples prior to analysis.
Homogenised lung and perfusate samples underwent protein precipitation by addition of a 3-fold excess of acetonitrile containing an internal standard. Following either filtration or centrifugation the resulting filtrate or supernatant was typically dried down under a nitrogen stream and then reconstituted in the mobile phase used for separation by HPLC. Following sample preparation lung and perfusate samples, along with residual dose formulations (pre- and post-centrifugation) were analysed by HPLC tandem mass spectrometry (LC-MS/MS), typically using a generic reverse phase chromatography gradient method with separation on a C18 column (50 x 2.1 mm, 3 μm) and an acidified mobile phase.
The cumulative amount of parent compound crossing the lung into the perfusate by the end of the 20 minute experiment was expressed as % of the total dose or as % of the dose originally in solution (solubilised dose). The relative rate of absorption across the lungs was also calculated, the percentage of the administered dose remaining in the lungs was plotted semilogarithimically against time and the initial rate of absorption expressed as a half-life.

[3] = mean (n = 2), range in brackets
[4] = other: intratracheal instillation
[5] = solubility in dose vehicle determined post study on a discrete weighing of the compound

Row | Structure (SMILES) | % Dose in solution [1] [%] | %SDiP [2, 3] | %TDiP [2, 3] | recovery at 20 min [2, 4] [%] | half-life [2, 4] [min] | other results
1 | COc1ccc(C[C@@H](C)NC[C@H](O)c2ccc(O)c(NC=O)c2)cc1.COc1ccc(C[C@@H](C)NC[C@H](O)c2ccc(O)c(NC=O)c2)cc1.O=C(O)/C=C/C(=O)O [Formoterol Fumerate] | 100 | 47 (42–52) % | 47 (42–52) % |  |  | Lung T1/2 (mins) ([2]; lung absorption half-life, mean (n = 2), range in brackets): 24 (22–26) mins; Recovery of total dose (%) ([2]; only where lung analysis was carried out, mean (n = 2), range in brackets): 73 (70–76) %
2 | CC(C)(O)c1ccccc1CC[C@@H](SCC1(CC(=O)O)CC1)c1cccc(/C=C/c2ccc3ccc(Cl)cc3n2)c1 [Montelukast] | 73 |  | 67 (57–78) % | 77 | 42 | 
3 | OCc1cc(C(O)CNCCCCCCOCCCCc2ccccc2)ccc1O (stereo not shown) [Salmeterol] | 36 | 41 (16–66) % | 15 (6–24) % | 69 | 146 | 
4 | CCc1cc2c(cc1CC)CC(NC[C@H](O)c1ccc(O)c3[nH]c(=O)ccc13)C2 [Indacaterol] | 88 | 12 (12) % | 11 (10,11) % | 91 | 273 | %SDiP ([2]; mean (n = 2), range in brackets, listed as indacaterol): 12%
5 | CC(C)[N+]1(C)[C@@H]2CC[C@H]1C[C@@H](OC(=O)C(CO)c1ccccc1)C2 (stereo partly shown) [Ipratropium Bromide] | 100 |  |  |  |  | 
6 | CC(C)(C)NCC(O)c1ccc(O)c(CO)c1 (stereo not shown) [Salbutamol] | 55 |  |  | 78 |  | 
7 | C[C@@H]1C[C@H]2[C@@H]3C[C@H](F)C4=CC(=O)C=C[C@]4(C)[C@@]3(F)[C@@H](O)C[C@]2(C)[C@@]1(OC(=O)c1ccco1)C(=O)SCF [Fluticasone Furoate] | 3.2 |  | 10 (7–12) % |  | 153 | %SDiP [2, 5]: 300^c %; %SDiP ([2]; solubility in dose vehicle determined post study on a discrete weighing of the compound, listed as fluticasone furoate): > 100%
8 | N=C(N)NC(=O)c1nc(Cl)c(N)nc1N [Amiloride] | 100 |  |  | 81 | 8 | 
9 | Nc1c(Br)cc(Br)cc1CN[C@H]1CC[C@H](O)CC1 [Ambroxol] | 95 |  |  | 70 | 39 | 
10 | CCN(CC)CC(=O)Nc1c(C)cccc1C [Lidocaine] | 100 |  | 75 (64–82) % |  |  | %SDiP [2, 5]: 75^c %
11 | C[N+]1(C)[C@@H]2C[C@@H](OC(=O)C(O)(c3cccs3)c3cccs3)C[C@H]1[C@@H]1O[C@@H]12 [Tiotropium Bromide] |  |  | 61 (59–62) % |  |  | half-life [2]: 16 min
12 | CCCc1c2oc(C(=O)O)cc(=O)c2cc2c(=O)cc(C(=O)O)n(CC)c12 [Nedocromil] | 24 | 125 (83–166) % | 32 (23–40) % | 85 | 32 | %SDiP ([2]; mean (n = 2), range in brackets, listed as nedocromil): > 100%
13 | CCCC1O[C@@H]2C[C@H]3[C@@H]4CCC5=CC(=O)C=C[C@]5(C)[C@H]4[C@@H](O)C[C@]3(C)[C@]2(C(=O)CO)O1 (stereo partly shown) [Budesonide] | 14 | 551 (540–561) % | 77 (76–79) % | 84 | 3.3 | %SDiP ([2]; mean (n = 2), range in brackets, listed as budesonide): > 100%
14 | CCC(=O)O[C@]1(C(=O)SCF)[C@H](C)C[C@H]2[C@@H]3C[C@H](F)C4=CC(=O)C=C[C@]4(C)[C@@]3(F)[C@@H](O)C[C@@]21C [Fluticasone Propionate] | 0.5 |  | 10 (10) % |  | 115 | %SDiP [2, 5]: 2000^c %; %SDiP ([2]; solubility in dose vehicle determined post study on a discrete weighing of the compound, listed as fluticasone propionate): > 100%
15 | CC1(C)O[C@@H]2C[C@H]3[C@@H]4C[C@H](F)C5=CC(=O)C=C[C@]5(C)[C@H]4[C@@H](O)C[C@]3(C)[C@]2(C(=O)CO)O1 [Flunisolide] | 42 | 96 (66–126) % | 41 (28–53) % | 139 | 15 | %SDiP ([2]; mean (n = 2), range in brackets, listed as flunisolide): 100%
16 | CC(=O)N[C@H]1[C@H]([C@H](O)[C@H](O)CO)OC(C(=O)O)=C[C@@H]1N=C(N)N [Zanamivir] |  |  | 100 (100–100) % | 104 | 7 | 
17 | C=CC[C@@H]1/C=C(\C)C[C@H](C)C[C@H](OC)[C@H]2O[C@@](O)(C(=O)C(=O)N3CCCC[C@H]3C(=O)O[C@H](/C(C)=C/[C@@H]3CC[C@@H](O)[C@H](OC)C3)[C@H](C)[C@@H](O)CC1=O)[C@H](C)C[C@@H]2OC [Tacrolimus (prograf), Tacrolimus] | 21 | 178 (176–180) % | 38 (38) % |  | 28 | %SDiP ([2]; mean (n = 2), range in brackets, listed as tacrolimus): > 100%
